The source made the active and inactive calls. The calls are words filed in the database; no cut-off is given here.
What was measured:
SH-SY5Y = assay: Neuroprotective activity against H2O2-induced cell death in human SH-SY5Y cells pretreated with compound followed by H2O2 stimulation and measured after 24 hrs by WST-8 assay; format: functional, cell-based
[1] = Neurotoxicity in human SH-SY5Y cells assessed as reduction in cell viability at 50 uM by WST-8 assay; format: toxicity, cell-based

SMILES	Activity (SH-SY5Y)	Activity [1]
Cc1c(C)c2c(c(C)c1O)CCC(C)(C(=O)O)O2 (configuration not stated)	Active	
O=C1C=C2Nc3cc(CCO)ccc3O[C@]23CCO[C@@]1(O)C3 (racemic)	Active	Non-Toxic
O=C1C=C2Nc3ccc(CCO)cc3O[C@]23CCO[C@@]1(O)C3 (racemic)	Active	Non-Toxic
OCCc1ccc(O)c(O)c1 [HYDROXYTYROSOL]	Active	Non-Toxic
